From ChEMBL document CHEMBL2429719, “Indolo[3,2-a]carbazoles from a deep-water sponge of the genus Asteropus” (2013) come the findings set out here.

Values after ≈ are worked out from the molar mass of the structure shown. Active and inactive are the calls of the source. No cut-off for these calls is given here.

For one assay, the system named is PANC-1. Put plainly: Cytotoxicity against human PANC1 cells at 5 ug/ml after 2 to 3 days by MTT assay. Type of assay: functional, cell-based.
The test system of a further assay is NCI/ADR-RES. The experiment in a line: Cytotoxicity against human NCI/ADR-RES cells at 5 ug/ml after 2 to 3 days by MTT assay. The assay is classed as functional, cell-based.
The test system of assay [1] is Staphylococcus aureus. The experiment in a line: Antimicrobial activity against methicillin-resistant Staphylococcus aureus up to 50 ug/ml by broth microdilution method. The assay is classed as functional, organism-based. For orientation: In broth dilution the organism is exposed to a series of concentrations in liquid medium.
The test system of assay [2] is Candida albicans. Put plainly: Antimicrobial activity against Candida albicans up to 50 ug/ml by broth microdilution method. Type of assay: functional, organism-based.
Assay [3] has as its system Staphylococcus aureus. The experiment in a line: Antimicrobial activity against methicillin-resistant Staphylococcus aureus by broth microdilution method. Type of assay: functional.
Assay [4] deals with Candida albicans. The experiment in a line: Antimicrobial activity against Candida albicans by broth microdilution method. Type of assay: functional.

On to `O=S(=O)(O)Oc1cc2[nH]c3ccc4c5ccc(Br)cc5[nH]c4c3c2cc1O`, for which the result in the assay on PANC-1 and in the assay on NCI/ADR-RES was inactive. For the same compound, the “growth inhibition (GI)” value with Staphylococcus aureus [1] and with Candida albicans [2] was “inactive” in each case.
The MIC is the least concentration at which growth counts as inhibited. Low readings indicate inhibition by little substance, high ones a need for much substance. With `Oc1cc2[nH]c3ccc4c5ccc(Br)cc5[nH]c4c3c2cc1O`, the figures for the MIC in the assay with Staphylococcus aureus [3] and in the assay on Candida albicans [4] were 50 mg/L (≈ 136 µM) and 25 mg/L (≈ 68.1 µM), respectively. Also, the outcome in the assay on PANC-1 and in the assay with NCI/ADR-RES was inactive.
